Key:
[1] = target: Disintegrin and metalloproteinase domain-containing protein 17 (Homo sapiens, UniProt P78536)
Description: Inhibition of TACE catalytic domain by FRET assay

Blood = experiment: Inhibition of LPS-induced TNFalpha production in human whole blood after 1 hr by ELISA; assay type: functional, tissue-based

Chain of Disintegrin and metalloproteinase domain-containing protein 17 (P78536 whole entry, the tested form may be a part): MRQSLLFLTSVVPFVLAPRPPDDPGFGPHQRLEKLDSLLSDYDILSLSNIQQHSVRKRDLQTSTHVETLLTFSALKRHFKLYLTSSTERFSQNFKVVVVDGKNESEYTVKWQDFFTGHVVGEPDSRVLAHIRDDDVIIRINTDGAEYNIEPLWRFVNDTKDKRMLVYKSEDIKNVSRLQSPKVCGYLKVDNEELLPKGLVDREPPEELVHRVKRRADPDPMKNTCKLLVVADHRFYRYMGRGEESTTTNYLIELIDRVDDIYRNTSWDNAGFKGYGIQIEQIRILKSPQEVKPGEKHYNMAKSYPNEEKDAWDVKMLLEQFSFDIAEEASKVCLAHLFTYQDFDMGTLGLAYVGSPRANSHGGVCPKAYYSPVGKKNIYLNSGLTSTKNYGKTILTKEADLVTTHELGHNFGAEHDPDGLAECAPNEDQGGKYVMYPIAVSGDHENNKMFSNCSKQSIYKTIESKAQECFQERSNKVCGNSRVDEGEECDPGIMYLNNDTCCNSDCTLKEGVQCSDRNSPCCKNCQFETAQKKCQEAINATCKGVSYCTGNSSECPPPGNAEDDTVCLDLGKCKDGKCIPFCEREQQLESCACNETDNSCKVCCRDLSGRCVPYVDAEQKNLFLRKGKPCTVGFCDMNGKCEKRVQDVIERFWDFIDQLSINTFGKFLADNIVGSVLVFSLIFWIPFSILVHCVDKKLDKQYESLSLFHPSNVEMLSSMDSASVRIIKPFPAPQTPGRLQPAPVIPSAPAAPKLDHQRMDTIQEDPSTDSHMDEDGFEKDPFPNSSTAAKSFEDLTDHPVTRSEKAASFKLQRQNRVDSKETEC

SMILES	Ki [1] [nM]	IC50 (Blood) [nM]
O=C(NO)[C@H]1C[C@@]12CC(c1ccc(OCc3cc(-c4cccnc4)nc4ccccc34)cc1)NC2=O (mixture of isomers)	32	–
O=C(O)[C@H]1C[C@@]12CC(c1ccc(OCc3cc(-c4ccccc4)nc4ccccc34)c(F)c1)NC2=O (mixture of isomers)	40	> 100
CN1C(=O)[C@@]2(CC1c1ccc(OCc3cc(-c4ccccc4)nc4ccccc34)c(F)c1)C[C@@H]2C(=O)O (mixture of isomers)	94	–
COC(=O)[C@H]1C[C@@]12CC(c1ccc(OCc3cc(-c4ccccc4)nc4ccccc34)c(F)c1)N(C)C2=O (mixture of isomers)	> 50000	–
O=C(NO)[C@H]1C[C@@]12CC(c1ccc(OCc3cc(-c4ccccc4)nc4ccccc34)c(F)c1)NC2=O (mixture of isomers)	6.7	> 100
Cc1cc(COc2ccc(C3C[C@@]4(C[C@@H]4C(=O)NO)C(=O)N3)cc2)c2ccccc2n1 (stereo partly specified)	32	–
CN1C(=O)[C@@]2(CC1c1ccc(OCc3cc(-c4ccccc4)nc4ccccc34)c(F)c1)C[C@@H]2C(=O)NO (mixture of isomers)	137	–
O=C(NO)[C@H]1C[C@@]12CC(c1ccc(OCc3cc(-c4ccncc4)nc4ccccc34)cc1)NC2=O (stereo partly specified)	33	–

Other lines, results leading:

Ki [1] [nM]	IC50 (Blood) [nM]	SMILES
3220	–	O=C(O)[C@H]1C[C@@]12CC(c1ccc(OCc3cc(-c4cccnc4)nc4ccccc34)cc1)NC2=O (mixture of isomers)
30	> 100	O=C(NO)[C@H]1C[C@@]12CC(c1ccc(OCc3cc(-c4ccccc4)nc4ccccc34)cc1)NC2=O (mixture of isomers)
53	> 100	O=C(NO)[C@H]1C[C@@]12CC(c1ccc(OCc3cc(C(F)(F)F)nc4ccccc34)cc1)NC2=O (mixture of isomers)
673	–	O=C(O)[C@H]1C[C@@]12CC(c1ccc(OCc3cc(-c4ccncc4)nc4ccccc34)cc1)NC2=O (mixture of isomers)
2140	> 100	O=C(O)[C@H]1C[C@@]12CC(c1ccc(OCc3cc(C(F)(F)F)nc4ccccc34)cc1)NC2=O (mixture of isomers)
3070	–	Cc1cc(COc2ccc(C3C[C@@]4(C[C@@H]4C(=O)O)C(=O)N3)cc2)c2ccccc2n1 (mixture of isomers)
143	> 100	O=C(O)[C@H]1C[C@@]12CC(c1ccc(OCc3cc(-c4ccccc4)nc4ccccc34)cc1)NC2=O (mixture of isomers)

Reference: ChEMBL document CHEMBL1139321, “Discovery of novel spirocyclopropyl hydroxamate and carboxylate compounds as TACE inhibitors” (Bioorg Med Chem Lett, 2009)
